In ChEMBL document CHEMBL4402558, “Designing Chimeric Molecules for Drug Discovery by Leveraging Chemical Biology” (J Med Chem, 2020):

Organism: Homo sapiens
Experiment: Antitumour activity against human DLBCL patients assessed as response rate co-treatment with rituximab relative to control
Type: functional

Question: Which Activity does the source give for `Cn1c(CCCC(=O)O)nc2cc(N(CCCl)CCCl)ccc21` here?
Answer: 18%
